Molecules are shown by their SMILES.

For one assay, the target named is Factor D (Homo sapiens (Human), UniProt P00746). As to the kind of experiment: biochemical. It is filed as biochemical.
Sequence of Factor D (P00746 26-253): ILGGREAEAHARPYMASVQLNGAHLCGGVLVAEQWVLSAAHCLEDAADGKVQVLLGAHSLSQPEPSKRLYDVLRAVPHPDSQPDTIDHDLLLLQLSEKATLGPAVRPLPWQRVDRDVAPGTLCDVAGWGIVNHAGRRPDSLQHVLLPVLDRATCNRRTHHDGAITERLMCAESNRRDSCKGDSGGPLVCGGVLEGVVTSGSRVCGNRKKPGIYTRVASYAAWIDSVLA
Conditions: not given
For the compound `NC(=O)n1cc(NC(=O)N2CC3CC2(C(=O)NCc2cccc(Cl)c2F)C3)c2ccccc21` [Example 136, 2-Aza-bicyclo[2.1.1]hexane-1,2-dicarboxylic acid 2-[(1-carbamoyl-1H-indol-3-yl)-amide] 1-(3-chloro-2-fluoro-benzylamide)], the IC50 – broadly, the concentration that inhibits the measured activity by half – came to 17900 nM.

Still in this assay, the particulars now being: read-out: IC50.
Take `NC(=O)n1cc(CC(=O)N2CC[C@@H](O)[C@H]2C(=O)NCc2cccc(Cl)c2F)c2ccccc21` [Example 444, 3-{2-[(2S,3R)-2-(3-Chloro-2-fluoro-benzylcarbamoyl)-3-hydroxy-pyrrolidin-1-yl]-2-oxo-ethyl}-indole-1-carboxylic acid amide]: the IC50 amounted to 243 nM. Still for that read-out and setting: then `NC(=O)n1cc(NC(=O)N2CC3O[C@@H]3[C@H]2C(=O)NCc2cccc(Cl)c2F)c2ccccc21` (stereo partly drawn) [Example 146, (1R,2S,5S)-6-Oxa-3-aza-bicyclo[3.1.0]hexane-2,3-dicarboxylic acid 3-[(1-carbamoyl-1H-indol-3-yl)-amide] 2-(3-chloro-2-fluoro-benzylamide)], with 9 nM. The same measure, in the same setting: then `O=C(CO)c1cn(CC(=O)N2C[C@H](F)C[C@H]2C(=O)NCc2cccc(Cl)c2F)c2ccccc12` [Example 563, (2S,4R)-4-Fluoro-1-{2-[3-(2-hydroxy-acetyl)-indol-1-yl]-acetyl}-pyrrolidine-2-carboxylic acid 3-chloro-2-fluoro-benzylamide], with 42 nM; and `NC(=O)n1cc(NC(=O)N2CCS[C@H]2C(=O)Nc2cncc(Cl)c2)c2ccccc21` [Example 310, (S)-Thiazolidine-2,3-dicarboxylic acid 3-[(1-carbamoyl-1H-indol-3-yl)-amide] 2-[(5-chloro-pyridin-3-yl)-amide]], with 475 nM; and `CC(C)(C)c1csc(NC(=O)[C@@H]2CCCN2C(=O)Nc2cn(C(N)=O)c3ccccc23)n1` [Example 160, (S)-Pyrrolidine-1,2-dicarboxylic acid 2-[(4-tert-butyl-thiazol-2-yl)-amide] 1-[(1-carbamoyl-1H-indol-3-yl)-amide]], with 1400 nM. The same measure, in the same setting: under `NC(=O)n1cc(NC(=O)N2C[C@](F)(CO)C[C@H]2C(=O)NCc2cccc(Cl)c2F)c2ccccc21` [Example 356, 2S,4S)-4-Fluoro-4-hydroxymethyl-pyrrolidine-1,2-dicarboxylic acid 1-[(1-carbamoyl-1H-indol-3-yl)-amide]2-(3-chloro-2-fluoro-benzylamide] stands 480 nM.

As to `CC(=O)n1cc(NC(=O)N2[C@@H]3C[C@@H]3C[C@H]2C(=O)N[C@H](CO)c2cccc(Cl)c2F)c2ccccc21` [Example 129, (1R,3S,5R)-2-Azabicyclo[3.1.0]hexane-2,3-dicarboxylic acid 2-[(1-acetyl-1H-indol-3-yl)-amide] 3-{[(S)-1-(3-chloro-2-fluoro-phenyl)-2hydroxy-ethyl]-amide}], the IC50 was 4 nM. On the same count and under the same terms, under `NC(=O)n1cc(NC(=O)N2CC[C@H](O)[C@H]2C(=O)NCc2cccc(Cl)c2)c2ccccc21` [Example 257, (2S,3S)-3-Hydroxy-pyrrolidine-1,2-dicarboxylic acid 1-[(1-carbamoyl-1H-indol-3-yl)-amide] 2-(3-chloro-benzylamide)] stands 3950 nM; under `NC(=O)n1cc(NC(=O)N2C[C@@H](N)C[C@H]2C(=O)NC(c2ccccc2)c2ccccc2)c2ccccc21` [Example 73, (2S,4S)-4-Amino-pyrrolidine-1,2-dicarboxylic acid 2-benzhydryl-amide 1-[(1-carbamoyl-1H-indol-3-yl)-amide]], 325 nM. The same measure, in the same setting: under `Cc1cc2c(C(N)=O)nn(CC(=O)N3[C@@H]4C[C@@H]4C[C@H]3C(=O)Nc3cccc(OC(F)(F)F)c3F)c2c(C)n1` [Example 717, 1-{2-[(1R,3S,5R)-3-(2-Fluoro-3-trifluoromethoxy-phenylcarbamoyl)-2-aza-bicyclo[3.1.0]hex-2-yl]-2-oxo-ethyl}-5,7-dimethyl-1H-pyrazolo [3,4-c]pyridine-3-carboxylic acid amide] stands 31 nM; under `COC(=O)COc1ccc2c(NC(=O)N3[C@@H]4C[C@@H]4C[C@H]3C(=O)NCc3cccc(Cl)c3F)cn(C(N)=O)c2c1` [Example 394, (1-Carbamoyl-3-{[(1R,3S,5R)-3-(3-chloro-2-fluoro-benzylcarbamoyl)-2-aza-bicyclo[3.1.0]hexane-2-carbonyl]-amino}-1H-indol-6-yloxy)-acetic acid methyl ester], 70 nM. For the compound `CC(=O)c1cn(CC(=O)N2C[C@H]3C[C@H]3[C@H]2C(=O)NCc2cccc(Cl)c2F)c2ncccc12` [Example 538, (1R,2S,5S)-3-[2-(3-Acetyl-pyrrolo[2,3-b]pyridin-1-yl)-acetyl]-3-aza-bicyclo[3.1.0] hexane-2-carboxylic acid 3-chloro-2-fluoro-benzylamide], the IC50 was determined as 911 nM. On the same count and under the same terms, then `NC(=O)n1cc(NC(=O)N2C[C@@H](N)C[C@H]2C(=O)NCc2cccc(-c3ccc(Cl)s3)c2)c2ccccc21` [Example 41, (2S,4S)-4-Amino-pyrrolidine-1,2-dicarboxylic acid 1-[(1-carbamoyl-1H-indol-3-yl)-amide] 2-[3-(5-chloro-thiophen-2-yl)-benzylamide]], with 3200 nM; and `CCc1cc2c(C(N)=O)nn(CC(=O)N3C[C@H](F)[C@@H](OC)[C@H]3C(=O)Nc3cccc(OC(F)(F)F)c3F)c2cn1` [Example 637, 5-Ethyl-1-{2-[(2S,3S,4S)-4-fluoro-2-(2-fluoro-3-trifluoromethoxy-phenylcarbamoyl)-3-methoxy-pyrrolidin-1-yl]-2-oxo-ethyl}-1H-pyrazolo[3,4-c]pyridine-3-carboxylic acid amide triflate], with 9 nM.

As to `CC(=O)n1cc(NC(=O)N2C[C@@H](CO)C[C@H]2C(=O)NCc2cccc(Cl)c2F)c2ccccc21` [Example 260, (2S,4S)-4-Hydroxymethyl-pyrrolidine-1,2-dicarboxylic acid 1-[(1-acetyl-1H-indol-3-yl)-amide] 2-(3-chloro-2-fluoro-benzylamide)], the IC50 stood at 200 nM.

`NC(=O)n1cc(NC(=O)N2C[C@H](F)C[C@H]2CNS(=O)(=O)c2cccc(Cl)c2)c2ccccc21` [Example 107, 3-({(2S,4R)-4-Fluoro-2-[(3-chloro-benzenesulfonylamino)-methyl]-pyrrolidine-1-carbonyl}-amino)-indole-1-carboxylic acid amide]: the IC50 was determined as 75 nM. Still for that read-out and setting: then `Cc1ccnc(CNC(=O)[C@@H]2C[C@H](N)CN2C(=O)Nc2cn(C(N)=O)c3ccccc23)c1` [Example 67, (2S,4S)-4-Amino-pyrrolidine-1,2-dicarboxylic acid 1-[(1-carbamoyl-1H-indol-3-yl)-amide] 2-[(4-methyl-pyridin-2-ylmethyl)-amide]], with 22200 nM; and `CC(=O)c1cn(CC(=O)N2[C@@H]3C[C@@H]3C[C@H]2C(=O)Nc2cccc(OC(F)(F)F)c2)c2ncccc12` [Example 558, (1R,3S,5R)-2-[2-(3-Acetyl-pyrrolo[2,3-b]pyridin-1-yl)-acetyl]-2-aza-bicyclo[3.1.0] hexane-3-carboxylic acid (3-trifluoromethoxy-phenyl)-amide], with 1990 nM. Still for that read-out and setting: under `NC(=O)n1cc(NC(=O)N2C[C@H]3C[C@H]3[C@H]2C(=O)Nc2cccc(Br)n2)c2ccccc21` [Example 763, (1R,2S,5S)-3-Aza-bicyclo[3.1.0]hexane-2,3-dicarboxylic acid 2-[(6-bromo-pyridin-2-yl)-amide]3-[(1-carbamoyl-1H-indol-3-yl)-amide]] stands 14 nM; under `C[C@H](NC(=O)[C@@H]1C[C@H](N)CN1C(=O)Nc1cn(C(N)=O)c2ccccc12)c1cccc(Cl)c1` [Example 68, (2S,4S)-4-Amino-pyrrolidine-1,2-dicarboxylic acid 1-[(1-carbamoyl-1H-indol-3-yl)-amide] 2-{[(S)-1-(3-chloro-phenyl)-ethyl]-amide}], 15100 nM; under `O=C(NCc1cccc(Cl)c1F)[C@@H]1C[C@H]2C[C@H]2N1C(=O)Cn1cc(C(=O)C(F)(F)F)c2ccccc21` [Example 495, (1R,3S,5R)-2-{2-[3-(2,2,2-Trifluoro-acetyl)-indol-1-yl]-acetyl}-2-aza-bicyclo[3.1.0] hexane-3-carboxylic acid 3-chloro-2-fluoro-benzylamide], 19 nM. Turning to `CC(C)c1cc(NC(=O)[C@@H]2CCCN2C(=O)Nc2cn(C(N)=O)c3ccccc23)on1` [Example 439, (S)-Pyrrolidine-1,2-dicarboxylic acid 1-[(1-carbamoyl-1H-indol-3-yl)-amide]2-[(3-isopropyl-isoxazol-5-yl)-amide]], the IC50 amounted to 1250 nM. Same read-out and setting: then `COC(=O)[C@H](CC(C)C)NC(=O)[C@@H]1C[C@H]2C[C@H]2N1C(=O)Cn1nc(C(C)=O)c2cccnc21` [Example 766, (S)-2-({(1R,3S,5R)-2-[2-(3-Acetyl-pyrazolo[3,4-b]pyridin-1-yl)-acetyl]-2-aza-bicyclo[3.1.0]hexane-3-carbonyl}-amino)-4-methyl-pentanoic acid methyl ester], with 216 nM; and `CC(=O)c1cn(CC(=O)N2C[C@@H](N(C)C)[C@H](F)[C@H]2C(=O)NCc2cccc(Cl)c2F)c2ccccc12` [Example 555, (2R,3S,4R)-1-[2-(3-Acetyl-indol-1-yl)-acetyl]-4-dimethylamino-3-fluoro-pyrrolidine-2-carboxylic acid 3-chloro-2-fluoro-benzylamide], with 2270 nM; and `CC[C@@H]1CC[C@@H](C(=O)NCc2cccc(Cl)c2F)N1C(=O)Nc1cn(C(N)=O)c2ccccc12` [Example 351, 2S,5R)-5-Ethyl-pyrrolidine-1,2-dicarboxylic acid 1-[(1-carbamoyl-1H-indol-3-yl)-amide]2-(3-chloro-2-fluoro-benzylamide], with 600 nM. The same measure, in the same setting: then `CO[C@H]1[C@@H](C(=O)NC2(c3ccc(Cl)cc3)CC2)N(C(=O)Cn2cc(C(C)=O)c3ccccc32)C[C@@H]1F` [Example 573, (2S,3S,4S)-1-[2-(3-Acetyl-indol-1-yl)-acetyl]-4-fluoro-3-methoxy-pyrrolidine-2-carboxylic acid [1-(4-chloro-phenyl)-cyclopropyl]-amide], with 865 nM; and `CN[C@H]1C[C@@H](C(=O)NCc2cccc(Cl)c2F)N(C(=O)Nc2cn(C(N)=O)c3ccccc23)C1` [Example 425, 2S,4S)-4-Methylamino-pyrrolidine-1,2-dicarboxylic acid 1-[(1-carbamoyl-1H-indol-3-yl)-amide]2-(3-chloro-2-fluoro-benzylamide], with 1230 nM.

The record behind these values is patent publication US9085555B2, “Complement pathway modulators and uses thereof” (priority 2011, dated 2015).
